Experimental data reported in patent US20220298160A1, “COMPOUNDS USEFUL IN HIV THERAPY” (priority 2019, published 2022).
Where two headings read alike, the source gives them in different places.

Assays:
[1] = system: HIV pseudotyped virus (NL4-3 provirus), WT; assay: PSV assay (pseudotyped virus assay), WT; conditions: U373 cells expressing human CD4 and CXCR4 or CCR5, luciferase signal after 3 days of culture
Excerpt: A pseudotyped virus assay (PSV) was used to assess the potency of the HIV inhibitor. Replication defective virus was produced by co-transfection of a plasmid containing an NL4-3 provirus [containing a mutation in the envelope open reading frame (ORF) and a luciferase reporter gene replacing the nef ORF] and a CMV-promoter expression plasmid containing an ORF for various HIV gp160 envelope clones. The harvested virus was stored at −80 C in small aliquots and the titer of the virus measured to produce a robust signal for antiviral assays.
The PSV assay was performed by using U373 cells stably transformed to express human CD4, the primary receptor for HIV entry and either human CXCR4 or human CCR5 which are the co-receptors required for HIV entry as target cells for infection. […] This dose-range was applied to U373 cells and the pre-made pseudotyped virus added. The amount of luciferase signal produced after 3 days of culture was used to reflect the level of pseudotyped virus infection. An IC50, or the concentration of inhibitor required to reduce PSV infection by 50% from the infection containing no inhibitor was calculated. […] IC50 values were determined from a 10 point dose response curve using 3-4-fold serial dilution for each compound, which spans a concentration range >1000 fold.

[2] = system: HIV pseudotyped virus (NL4-3 provirus), M184V; assay type: cell-based; conditions: PSV assay; U373 cells expressing human CD4 and CXCR4 or CCR5; luciferase signal after 3 days of culture
[3] = Human immunodeficiency virus 1, NL43, in Homo sapiens, 72 h, read-out: WT IC50 (μM), PSV assay

C#C[C@]1(COC(=O)OCc2ccc(OC(=O)CCCCCCCCCCCCCCCCCCC)cc2)O[C@@H](n2cnc3c(N)nc(F)nc32)C[C@@H]1O [Example 14, 4-((((((2R,3S,5R)-5-(6-amino-2-fluoro-9H-purin-9-yl)-2-ethynyl-3-hydroxytetrahydrofuran-2-yl)methoxy)carbonyl)oxy)methyl)phenyl icosanoate] gave an IC50 [1, 3] of 1.55 µM and an IC50 [2] of 2410 nM.
Work on C#C[C@]1(CO)O[C@@H](n2cnc3c(N)nc(F)nc32)C[C@@H]1OC(=O)OC(COC(=O)CCCCCCCC)COC(=O)CCCCCCCC [Example 30, 2-(((((2R,3S,5R)-5-(6-amino-2-fluoro-9H-purin-9-yl)-2-ethynyl-2-(hydroxymethyl)tetrahydrofuran-3-yl)oxy)carbonyl)oxy)propane-1,3-diyl dinonanoate] yielded an IC50 [1, 3] of 0.0077 µM and an IC50 [2] of 29.3 nM.
C#C[C@]1(CO)O[C@@H](n2cnc3c(N)nc(F)nc32)C[C@@H]1OC(=O)NCCCCCCCCCCCC [Example 15, (2R,3S,5R)-5-(6-amino-2-fluoro-9H-purin-9-yl)-2-ethynyl-2-(hydroxymethyl)tetrahydrofuran-3-yl dodecylcarbamate] gave an IC50 [1, 3] of over 15 µM and an IC50 [2] of over 15000 nM.
C#C[C@]1(CO)O[C@@H](n2cnc3c(NC(=O)OC(COCCCCCCCCC)COC(=O)CCCCCCCC)nc(F)nc32)C[C@@H]1O (single isomer, unassigned) [Example 36] gave an IC50 ([1]; read-out: WT IC50, PSV assay) of 0.0085 µM and an IC50 [2] of 22.9 nM.
For C#C[C@]1(COC(=O)NC)O[C@@H](n2cnc3c(N)nc(F)nc32)C[C@@H]1O [Example 5, ((2R,3S,5R)-5-(6-amino-2-fluoro-9H-purin-9-yl)-2-ethynyl-3-hydroxytetrahydrofuran-2-yl)methyl methylcarbamate], the IC50 [1, 3] was 15.4 µM and the IC50 [2] was over 25000 nM.
Work on C#C[C@]1(CO)O[C@@H](n2cnc3c(N)nc(F)nc32)C[C@@H]1OC(=O)NC1CC1 [Example 24, (2R,3S,5R)-5-(6-amino-2-fluoro-9H-purin-9-yl)-2-ethynyl-2-(hydroxymethyl)tetrahydrofuran-3-yl cyclopropylcarbamate] yielded an IC50 [1, 3] of 1.48 µM and an IC50 [2] of 3740 nM.
C#C[C@]1(CO)O[C@@H](n2cnc3c(N)nc(F)nc32)C[C@@H]1OC(=O)NC(C)(C)C [Example 23, (2R,3S,5R)-5-(6-amino-2-fluoro-9H-purin-9-yl)-2-ethynyl-2-(hydroxymethyl)tetrahydrofuran-3-yl tert-butylcarbamate] was tested, and the IC50 [1, 3] was over 25 µM and the IC50 [2] was over 25000 nM.
For C#C[C@]1(COC(=O)OCc2ccc(OC(=O)CCCCCCCCCCCCC)cc2)O[C@@H](n2cnc3c(N)nc(F)nc32)C[C@@H]1O [Example 13, 4-((((((2R,3S,5R)-5-(6-amino-2-fluoro-9H-purin-9-yl)-2-ethynyl-3-hydroxytetrahydrofuran-2-yl)methoxy)carbonyl)oxy)methyl)phenyl tetradecanoate], the IC50 [1, 3] was 0.0072 µM and the IC50 [2] was 17.8 nM.
With C#C[C@]1(CO)O[C@@H](n2cnc3c(NC(=O)OC4COC(=O)CCCCCCCCCCCC(=O)OC4)nc(F)nc32)C[C@@H]1O [Example 34, 6,18-dioxo-1,5-dioxacyclooctadecan-3-yl (9-((2R,4S,5R)-5-ethynyl-4-hydroxy-5-(hydroxymethyl)tetrahydrofuran-2-yl)-2-fluoro-9H-purin-6-yl)carbamate] the IC50 [1, 3] was 0.0132 µM and the IC50 [2] was 67.8 nM.
With C#C[C@]1(CO)O[C@@H](n2cnc3c(N)nc(F)nc32)C[C@@H]1OC(=O)OCc1ccc(OC(=O)CCCCCCCCCCCCC)cc1 [Example 12, 4-((((((2R,3S,5R)-5-(6-amino-2-fluoro-9H-purin-9-yl)-2-ethynyl-2-(hydroxymethyl)tetrahydrofuran-3-yl)oxy)carbonyl)oxy)methyl)phenyl tetradecanoate] the IC50 [1, 3] was 0.017 µM and the IC50 [2] was 66.3 nM.
For C#C[C@]1(CO)O[C@@H](n2cnc3c(N)nc(F)nc32)C[C@@H]1OC(=O)NCCCCCCCC [Example 17, (2R,3S,5R)-5-(6-amino-2-fluoro-9H-purin-9-yl)-2-ethynyl-2-(hydroxymethyl)tetrahydrofuran-3-yl octylcarbamate], the IC50 [1, 3] was over 15 µM and the IC50 [2] was over 15000 nM.
For C#C[C@]1(CO)O[C@@H](n2cnc3c(NC(=O)OC(COC(=O)CCCCCCCC)COC(=O)CCCCCCCC)nc(F)nc32)C[C@@H]1O [Example 33, 2-(((9-((2R,4S,5R)-5-ethynyl-4-hydroxy-5-(hydroxymethyl)tetrahydrofuran-2-yl)-2-fluoro-9H-purin-6-yl)carbamoyl)oxy)propane-1,3-diyl dinonanoate], the IC50 [1, 3] was 0.0054 µM and the IC50 [2] was 24.3 nM.
Compound C#C[C@]1(CO)O[C@@H](n2cnc3c(N)nc(F)nc32)C[C@@H]1OC(=O)N1CCC(C)CC1 [Example 22, (2R,3S,5R)-5-(6-amino-2-fluoro-9H-purin-9-yl)-2-ethynyl-2-(hydroxymethyl)tetrahydrofuran-3-yl 4-methylpiperidine-1-carboxylate] has an IC50 [1, 3] of 11.7 µM and an IC50 [2] of over 25000 nM.
C#C[C@]1(CO)O[C@@H](n2cnc3c(NC(=O)OC(COCCCCC)COC(=O)CCCC)nc(F)nc32)C[C@@H]1O (single isomer, unassigned) [Example 37] showed an IC50 [1, 3] of 0.0095 µM and an IC50 [2] of 32.4 nM.
Compound C#C[C@]1(COC(=O)NC(C)(C)C)O[C@@H](n2cnc3c(N)nc(F)nc32)C[C@@H]1O [Example 8, ((2R,3S,5R)-5-(6-amino-2-fluoro-9H-purin-9-yl)-2-ethynyl-3-hydroxytetrahydrofuran-2-yl)methyl tert-butylcarbamate] has an IC50 [1, 3] of 0.142 µM and an IC50 [2] of 1130 nM.
For C#C[C@]1(COC(=O)NCCCCCCCCCCCCCCCCCC)O[C@@H](n2cnc3c(N)nc(F)nc32)C[C@@H]1O [Example 1, ((2R,3S,5R)-5-(6-amino-2-fluoro-9H-purin-9-yl)-2-ethynyl-3-hydroxytetrahydrofuran-2-yl)methyl octadecylcarbamate], the IC50 [1, 3] was over 25 µM and the IC50 [2] was over 25000 nM.
Work on C#C[C@]1(CO)O[C@@H](n2cnc3c(N)nc(F)nc32)C[C@@H]1OC(=O)OC1COC(=O)CCCCCCCCCCCC(=O)OC1 [Example 31, (2R,3S,5R)-5-(6-amino-2-fluoro-9H-purin-9-yl)-2-ethynyl-2-(hydroxymethyl)tetrahydrofuran-3-yl (6,18-dioxo-1,5-dioxacyclooctadecan-3-yl) carbonate] yielded an IC50 [1, 3] of 0.0151 µM and an IC50 [2] of 47.8 nM.
In the case of C#C[C@]1(COC(=O)NC(C)C)O[C@@H](n2cnc3c(N)nc(F)nc32)C[C@@H]1O [Example 6, ((2R,3S,5R)-5-(6-amino-2-fluoro-9H-purin-9-yl)-2-ethynyl-3-hydroxytetrahydrofuran-2-yl)methyl isopropylcarbamate], the IC50 [1, 3] is reported as 0.56 µM and the IC50 [2] is reported as 1080 nM.
Work on C#C[C@]1(COC(=O)NCCCCCCCC)O[C@@H](n2cnc3c(N)nc(F)nc32)C[C@@H]1O [Example 2, ((2R,3S,5R)-5-(6-amino-2-fluoro-9H-purin-9-yl)-2-ethynyl-3-hydroxytetrahydrofuran-2-yl)methyl octylcarbamate] yielded an IC50 [1, 3] of over 25 µM and an IC50 [2] of over 25000 nM.
C#C[C@]1(CO)O[C@@H](n2cnc3c(NC(=O)OC(COC(=O)CCCC)COC(=O)CCCC)nc(F)nc32)C[C@@H]1O [Example 32, 2-(((9-((2R,4S,5R)-5-ethynyl-4-hydroxy-5-(hydroxymethyl)tetrahydrofuran-2-yl)-2-fluoro-9H-purin-6-yl)carbamoyl)oxy)propane-1,3-diyl dipentanoate] gave an IC50 [1, 3] of 0.0075 µM and an IC50 [2] of 26.9 nM.
C#C[C@]1(CO)O[C@@H](n2cnc3c(N)nc(F)nc32)C[C@@H]1OC(=O)OC(COC(=O)CCCC)COC(=O)CCCC [Example 29, 2-(((((2R,3S,5R)-5-(6-amino-2-fluoro-9H-purin-9-yl)-2-ethynyl-2-(hydroxymethyl)tetrahydrofuran-3-yl)oxy)carbonyl)oxy)propane-1,3-diyl dipentanoate] gave an IC50 [1, 3] of 0.0077 µM and an IC50 [2] of 28.3 nM.
In the case of C#C[C@]1(COC(=O)NCCCCC)O[C@@H](n2cnc3c(N)nc(F)nc32)C[C@@H]1O [Example 4, ((2R,3S,5R)-5-(6-amino-2-fluoro-9H-purin-9-yl)-2-ethynyl-3-hydroxytetrahydrofuran-2-yl)methyl pentylcarbamate], the IC50 [1, 3] is reported as 2.66 µM and the IC50 [2] is reported as over 25000 nM.
In the case of C#C[C@]1(CO)O[C@@H](n2cnc3c(N)nc(F)nc32)C[C@@H]1OC(=O)NC [Example 18, (2R,3S,5R)-5-(6-amino-2-fluoro-9H-purin-9-yl)-2-ethynyl-2-(hydroxymethyl)tetrahydrofuran-3-yl methylcarbamate], the IC50 [1, 3] is reported as 2.03 µM and the IC50 [2] is reported as 9110 nM.
Work on C#C[C@]1(COC(=O)OC2COC(=O)CCCCCCCCCCCC(=O)OC2)O[C@@H](n2cnc3c(N)nc(F)nc32)C[C@@H]1O [Example 10, ((2R,3S,5R)-5-(6-amino-2-fluoro-9H-purin-9-yl)-2-ethynyl-3-hydroxytetrahydrofuran-2-yl)methyl (6,18-dioxo-1,5-dioxacyclooctadecan-3-yl) carbonate] yielded an IC50 [1, 3] of 0.0097 µM and an IC50 [2] of 31.3 nM.
Compound C#C[C@]1(COC(=O)N(CC)CC)O[C@@H](n2cnc3c(N)nc(F)nc32)C[C@@H]1O [Example 7, ((2R,3S,5R)-5-(6-amino-2-fluoro-9H-purin-9-yl)-2-ethynyl-3-hydroxytetrahydrofuran-2-yl)methyl diethylcarbamate] has an IC50 [1, 3] of 1.28 µM and an IC50 [2] of 2410 nM.
For C#C[C@]1(CO)O[C@@H](n2cnc3c(N)nc(F)nc32)C[C@@H]1OC(=O)NCCCCCCCCCCCCCCCCCC [Example 16, (2R,3S,5R)-5-(6-amino-2-fluoro-9H-purin-9-yl)-2-ethynyl-2-(hydroxymethyl)tetrahydrofuran-3-yl octadecylcarbamate], the IC50 [1, 3] was 15 µM and the IC50 [2] was 22400 nM.
C#C[C@]1(CO)O[C@@H](n2cnc3c(N)nc(F)nc32)C[C@@H]1OC(=O)OCc1ccc(OC(=O)CCCCCCCCCCCCCCCCCCC)cc1 [Example 11, 4-((((((2R,3S,5R)-5-(6-amino-2-fluoro-9H-purin-9-yl)-2-ethynyl-2-(hydroxymethyl)tetrahydrofuran-3-yl)oxy)carbonyl)oxy)methyl)phenyl icosanoate] gave an IC50 [1, 3] of 2.31 µM and an IC50 [2] of 3210 nM.
